SMILES strings stand for the structures. Like-named read-outs stand apart in the source and are kept apart here. Some results are limits rather than exact numbers.

Data set [1] concerns HDV genomic RNA. Briefly: HDV genomic RNA in HDV monoinfected dHepaRG cells (Northern Blot). To be noted: day 4 to 11 post-infection.
Method: Differentiated HepaRG cells were infected with HDV at a MOI of 25 GE/cell. From day 4 to day 11 post-infection, cells were treated with 1 or 10 μM of GW4064, 10 μM of 6-ECDCA and 1 μM of tropifexor. At day 11 post HDV infection, cells were collected and HDV genomic RNA was analyzed by Northern Blot.
To determine if FXRα-mediated inhibition of HDV was independent of HBV, the inventors analyzed the impact of FXRα agonists in HDV mono-infected dHepaRG cells.
Total RNA was extracted from infected cells using Tri Reagent® (TR118, Molecular Research Center). […] After electrotransfer to charged nylon membranes (Roche), genomic HDV RNA sequences were detected by using a strand-specific RNA probe synthesized using the Dig RNA Labeling kit (Sp6/T7) (Roche) and DIG luminescent detection kit (Roche) accordinng to the manufacturer's instruction. Quantification of signals were done with ImageLab.
As an internal control for the amount and quality of the extracted RNA, the membrane was stripped and rehybridized by using labeled oligonucleotides specific for human 18S rRNA and 28S rRNA.
Data set [2] deals with HDV. Put plainly: HDV replication in HDV monoinfected dHepaRG cells (total HDV RNA, RT-qPCR). The class given is cell-based, Hepatitis D virus. To be noted: day 4 to 11 post-infection. The protocol:
FIG. 6. FXRα agonists inhibit HDV replication in monoinfected dHepaRG cells.
Total RNA was prepared using NucleoSpin RNA Plus (Macherey-Nagel). After DNA digestion with TURBO DNase (Ambion), maximum 1000 ng RNA were reverse-transcribed using High-Capacity RNA-to-cDNA kit (Thermo Fisher Scientific). […] . All assays were performed in triplicate.
(In general: Real-time PCR tracks product formation cycle by cycle.)

For data set [3] the following is noted: in vivo; cited from earlier work.
The subject of data set [4] is HDV. Put plainly: HDV replication in HBV-infected dHepaRG super-infected with HDV (intracellular HDV RNA, RT-qPCR). The class given is cell-based, Hepatitis D virus. To be noted: 7 days treatment, superinfected dHepaRG.
The test system of data set [5] is HDV antigens (HDAg-L, HDAg-S). To be noted: superinfected dHepaRG, Western Blot densitometry normalized to B-tubulin. For orientation: A western blot detects proteins with antibodies after separation by electrophoresis.
Method: Differentiated HepaRG cells were infected with HBV at a MOI of 100 GE/cell and 7 days later with HDV at a MOI of 10 GE/cell. […] Cells were harvested at day 17 post HBV infection and lysed for protein extraction and WB analyses. Graphs represent the densitometry analyses of the respective blots and results are presented as ratios of HDAgs normalized to the levels of B-tubulin.
(§1) Cells were harvested in RIPA lysis buffer (NaCl 150 mM, Tris HCl pH=8.0 50 mM, SDS 0.1%, NP40 1%, Na Deoxycholate 0.5%) containing protease inhibitors (Protein Cocktail Inhibitors from Sigma-Aldrich, NaF 10 mM, Na Orthovanadate 10 mM). Clarified lysates were subjected to 10% SDS-PAGE and Western Blot transfer onto PVDF or nitrocellulose membranes using the TransTurbo Blot apparatus according to the manufacturer (Biorad). Primary antibodies are the HDVAg antibody (kind gift of Dr Alain Kay) and the beta-tubulin antibody (Abcam). Secondary HRP antibodies were purchased from Sigma-Aldrich. HRP signal detection was determined electronically using Ozyme—Syngene PXi Image system and parameters set strictly below the saturation point.
In data set [6] the test system is HDV. Briefly: HDV replication in HBV/HDV coinfected dHepaRG cells (intracellular HDV RNA, RT-qPCR). The class given is cell-based, Hepatitis D virus. To be noted: 10 μM, treated day 3 to 13 post-infection. How it is done: The HepaRG cell line derived from a human cellular hepato carcinoma can differentiate and regain many phenotypic traits of hepatocytes after 4 weeks of culture under defined conditions^1. HepaRG cells were cultured, differentiated, and infected by HBV and HDV as previously described^2,3.
Total RNA was prepared using NucleoSpin RNA Plus (Macherey-Nagel). After DNA digestion with TURBO DNase (Ambion), maximum 1000 ng RNA were reverse-transcribed using High-Capacity RNA-to-cDNA kit (Thermo Fisher Scientific). […] All assays were performed in triplicate.

Data set [7] deals with HBV. Briefly: Anti-HBV activity in HBV/HDV coinfected dHepaRG cells (intracellular HBV RNAs, secreted HBs and HBe antigens). It is filed as cell-based, Hepatitis B virus. To be noted: 10 μM, day 13. From the text: FIG. 1. FXRα agonist inhibits HDV replication in HBV-HDV coinfected dHepaRG cells. […] Cells and supernatants were harvested at day 13 for intracellular HBV and HDV RNA and secreted antigens quantification. Results are the mean+/−SD of two experiments performed with three biological replicates.
The inventors first evaluated the impact of FXRα agonists on HDV replication in in vitro coinfected dHepaRG cells. Cells were simultaneously infected with HBV and HDV. […] At day 13 post-infection, cells and supernatants were collected. The intracellular amounts of HDV and HBV RNAs were quantified as well as secreted HBe and HBs antigens.
HBV stocks (genotype D, Genbank ID U95551) were prepared using the HepAD38 cell line according to previously described protocols^7.
HBs and HBe antigens secreted in cells supernatant were quantified, after required dilutions, on Mini Vidas apparatus with Vidas HBs and Vidas HBE/HBET kits (bioMerieux, France) or Autobio kits (AutoBio, China) according to manufacturer's protocol.
Total RNA was prepared using NucleoSpin RNA Plus (Macherey-Nagel). After DNA digestion with TURBO DNase (Ambion), maximum 1000 ng RNA were reverse-transcribed using High-Capacity RNA-to-cDNA kit (Thermo Fisher Scientific). Quantitative PCR was carried out with primers HDV-F (5′-[…] -3′, SEQ ID NO: 1) and HDV-R (5′-[…] -3′, SEQ ID NO: 2) for quantification of total HDV RNA and HBV-F (5′-[…] -3′, SEQ ID NO: 3) and HBV-R (5′-[…] -3′, SEQ ID NO: 4) for quantification of pregenomic/precore HBV RNA. cDNA was analysed by quantitative PCR (qPCR) using QuantiFast SYBR® Green PCR kit (Qiagen) on LightCycler® 480 instrument (Roche) using a 45 PCR cycles. All assays were performed in triplicate. Relative quantification was determined by normalizing the expression of each gene to S9 housekeeping gene using primers S9-F (5′-[…] -3′, SEQ ID NO: 5) and S9-R (5′-[…] -3′, SEQ ID NO: 6).

The test system of data set [8] is HDV antigens (HDAg-L, HDAg-S). To be noted: superinfected PHH, Western Blot densitometry normalized to B-tubulin.
Method: PHH were infected with HBV at a MOI of 100 GE/cell and 4 days later with HDV at a MOI of 10 GE/cell. […] Cells and supernatants were harvested at day 14 post HBV infection for intracellular HDV RNA quantification and lysed for protein extraction and WB analyses. Graphs represent the densitometry analyses of the respective blots and results are presented as ratios of HDAgs normalized to the levels of B-tubulin.
as §1
The subject of data set [9] is HDV particles. Put plainly: Specific infectivity of secreted HDV particles on naïve Huh7.5-NTCP cells. To be noted: 6 days post infection.
Method: (A) Supernatants of infected dHepaRG cells were collected, concentrated by PEG precipitation and the levels of extracellular HDV RNAs were assessed by qRT-PCR analyses. (B-C) Naïve HuH7.5-^NTCP cells were infected with the different concentrated supernatants with (B) 500 vge/cell or (C) as indicated. Six days later, levels of intracellular HDV RNAs were assessed by RT-qPCR analyses. Results of RT-qPCR are the mean+/−SD of three independent experiments each performed with three biological replicates.
Finally, naïve Huh7.5-^NTCP cells were infected with the same concentrated supernatants but using two different HDV inoculum, 100 and 500 vge/cell, for each condition.
(§2) For analysis of HDV virion specific infectivity, supernatants from dHepaRG infected with both HBV and HDV were concentrated using 8% PEG 8000. HDV RNA was quantified by RT-qPCR in concentrates and Huh7.5^NTCP cells were infected using same viral genome equivalents (vge) of concentrated virus for each condition of treatment. Six days post infection, total cellular RNA was extracted and HDV RNA was quantified by RT-qPCR.
In data set [10] the test system is HDV. Briefly: HDV replication in HBV-infected PHH super-infected with HDV (intracellular HDV RNA, RT-qPCR). It is filed as cell-based, Hepatitis D virus. To be noted: 7 days treatment, superinfected PHH.
Data set [11] deals with nascent HDV RNAs. Briefly: Run-On assay of nascent HDV RNAs in HBV/HDV co-infected dHepaRG. The class given is cell-based, Hepatitis D virus. To be noted: 10 μM for 4 days, 2 h labelled uridin, coinfected dHepaRG. How it is done:
FIG. 8. Decrease of the levels of nascent HDV RNAs in HBV/HDV co-infected dHepaRG treated with FXRα agonists. dHepaRG were co-infected with HBV (100 vge/cell) and with HDV (10 vge/cell). […] Cells were incubated with labelled uridin or not (mock-EU) for 2 h, washed and harvested. Total intracellular HDV RNAs as well as EU-labelled HDV RNAs (nascent intracellular HDV RNAs) were isolated and quantified by RT-qPCR analyses. As a control, cells were treated with actinomycin D (10 μg/mL, ActD) 20 min before incubation with labelled uridin in order to block transcription of nascent RNAs. Results are the mean+/−SD one experiment performed with three biological replicates.
Six days post-infection, cells were treated with 10 μM of GW4064 for 4 days before Run-On experiment.
HDV-infected HepaRG cells were incubated with labelled uridin or not (mock-EU) for 2 h, washed and harvested. Total intracellular HDV RNAs as well as EU-labelled HDV RNAs (nascent intracellular HDV RNAs) were isolated using the Click-iT™ Nascent RNA Capture Kit (Thermofisher Scientific) according to the manufacturer's instruction. As a control, cells were treated with 10 μg/mL of actinomycin D 20 min before incubation with labelled uridin in order to block transcription of nascent RNAs.

For data set [12], the system named is HDV. Briefly: Secretion of HDV RNA from HBV/HDV coinfected dHepaRG cells (RT-qPCR of concentrated supernatants). To be noted: 10 μM for 10 days.
Method: (A) Supernatants of infected dHepaRG cells were collected, concentrated by PEG precipitation and the levels of extracellular HDV RNAs were assessed by qRT-PCR analyses. […] Results of RT-qPCR are the mean+/−SD of three independent experiments each performed with three biological replicates.
as §2

On to `CC[C@H]1[C@@H](O)[C@@H]2[C@H](CC[C@]3(C)[C@@H]([C@H](C)CCC(=O)O)CC[C@@H]23)[C@@]2(C)CC[C@@H](O)C[C@@H]12` [6-ECDCA, 6-ethyl-cheno-deoxycholic acide], for which the “amount of genomic HDV RNA” value in data set [1] (10 μM) was “decreased”. Besides, the “decrease of total HDV RNA” value in data set [2] (10 μM) is given as “around 60%”.
As to `CC(C)c1onc(-c2c(Cl)cccc2Cl)c1COc1ccc(/C=C/c2cccc(C(=O)O)c2)c(Cl)c1` [GW4064, 3-[2-[2-Chloro-4-[[3-(2,6-dichloro-phenyl)-5-(1-methylethyl)-4-isoxazolyl]methoxy]phenyl]ethenyl] benzoic acid], in [3], the bioavailability entry was “limited”. The “decrease of total intracellular HDV RNA” value in data set [4] (1 μM) is “very pronounced”; in data set [4] (10 μM), “up to 60%”; in data set [6], 60%; in data set [10] (1 μM), “very pronounced”; in data set [10] (10 μM), no more than 45%. The “reduction of HDAg-L (large HDV antigen) amount” value in data set [5] and in data set [8] was 75% each time. In addition, the “reduction of HDAg-S (small HDV antigen) amount” value in data set [5] and in data set [8] was 75% in each case. In addition, in data set [7], the “anti-HBV activity on amount of intracellular HBV RNAs” value is “verified”. Moreover, the “anti-HBV activity on secreted HBe antigen” value in [7] is recorded as “verified”. In data set [7], the “anti-HBV activity on secreted HBs antigen” value was “verified”. Also, the “amount of genomic HDV RNA” value in data set [1] (10 μM) was “decreased”. In [9] (Huh7.5-NTCP infected with supernatants of treated dHepaRG), the “intracellular HDV RNA levels with inoculum 100 versus 500 vge/cell” value is listed as “no significant difference”. Further, in [9] (producer cells treated 10 μM, Huh7.5-NTCP infected with 500 vge/cell), the “decrease of intracellular HDV RNA in cells infected with supernatants of treated dHepaRG” value is given as “more than 95%”. Also, the “synthesis of nascent HDV RNA” value in data set [11] is “able to inhibit”. For the same molecule, the “decrease of total HDV RNA” value in [2] (10 μM) is given as “around 60%”. Also, the “decrease of secreted HDV RNA” value in [12] worked out at 65%.
As for `O=C(O)c1cc(F)c2nc(N3[C@@H]4CC[C@H]3C[C@@H](OCc3c(-c5ccccc5OC(F)(F)F)noc3C3CC3)C4)sc2c1` [tropifexor, 2-[(1R,3r,5S)-3-({5-cyclopropyl-3-[2-(trifluoromethoxy)phenyl]-1,2-oxazol-4-yl}methoxy)-8-azabicyclo[3.2.1]octan-8-yl]-4-fluoro-1,3-benzothiazole-6-carboxylic acid], the “amount of genomic HDV RNA” value in data set [1] (1 μM) is reported as “decreased”. In data set [2] (1 μM), the “decrease of total HDV RNA” value is listed as “around 60%”.
